In patent publication US11834470B2, “4-thioribose NAD analogues and methods of synthesizing and using the same” (University of Southern California, priority 2018, dated 2023):

Assays:
Format in all cases: biochemical
human CD38 [1] = target: T1, human CD38 (Homo sapiens, UniProt P28907, N100D/N164A/N209D/N219D); assay: continuous fluorescence-based CD38 cyclase activity assay with NGD+ as substrate (cGDPR formation)
T1 construct: His6 (N, cleaved yes); TEV protease cleavage site (N, cleaved yes); made in house; host or cells: Expi293 cells, secreted, transient transfection (pFuse vector)
T1 sequence (P28907 45-300 N100D/N164A/N209D/N219D): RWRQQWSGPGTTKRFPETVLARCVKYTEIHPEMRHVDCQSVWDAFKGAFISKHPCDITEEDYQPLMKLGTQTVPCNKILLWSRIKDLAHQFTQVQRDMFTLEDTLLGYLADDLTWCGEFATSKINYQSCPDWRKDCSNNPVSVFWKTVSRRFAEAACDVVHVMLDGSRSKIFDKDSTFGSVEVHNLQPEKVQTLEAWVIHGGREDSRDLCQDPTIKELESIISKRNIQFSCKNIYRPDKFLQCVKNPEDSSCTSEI
Protocol: Recombinant human CD38 (8 nM) was incubated with 50 μM NGD^+ in the presence of varied concentrations of S-NAD^+. CD38 cyclase activities were monitored on the basis of the formation of fluorescent cGDPR as measured at 410 nm.
NGD^+ (Sigma-Aldrich, MO) was used as a substrate to determine ADP-ribosyl cyclase activity of purified CD38, because cyclic GDP-ribose (cGDPR) product is characterized by distinctive UV absorbance at 295 nm and fluorescence emission at 410 nm (excitation at 300 nm).^5 To characterize kinetic parameters, reactions were initiated by additions of recombinant CD38 (8.3 nM final) into assay wells with various concentrations of NGD^+ in 20 mM MES, pH 6.5, followed by monitoring the reactions through fluorescence at 410 nm (excitation at 300 nm) to determine initial reaction rates. Inhibition activities of S-NAD^+ were determined by carried out enzymatic formation of cyclic GDP-ribose in the presence of S-NAD^+. […] All reactions were carried out in black 96-well plates and the resulting fluorescence was measured using a BioTek Synergy H1 Hybrid Multi-Mode Microplate Reader (BioTek, VT) in the kinetic mode. The Km of NGD^+ for CD38 was calculated by fitting data with Michaelis-Menten function implemented in GraphPad Prism (La Jolla, CA). […]

human CD38 [2] = target: T1, human CD38; assay: substrate activity with human CD38, overnight incubation, HPLC analysis; details: 1 mM compound, 13.4 nM recombinant human CD38, 50 mM MES pH 6.5, room temperature overnight
Protocol: FIGS. 15A-15D: Activity of NAD^+ and S-NAD^+ for human CD38. HPLC analysis of substrate activities of NAD^+ (FIG. 15A-15B) and S-NAD^+ (FIG. 15C-15D) with human CD38 as measured by UV absorbance at 260 nm. 1 mM NAD^+ or S-NAD^+ was incubated without and with CD38 at RT overnight, followed by HPLC analysis.
1 mM S-NAD^+ and NAD^+ in 50 mM MES, pH 6.5 were incubated with 13.4 nM recombinant human CD38 for overnight at room temperature, followed HPLC analysis of the reaction mixtures. HPLC analysis was performed with a semipreparative C18 Kinetex column (5 μm, 100 Å, 150×10.0 mm, from Phenomenex Inc, Torrance, CA) using following method: mobile phase A: 0.1% formic acid (aq); mobile phase B: 0.1% formic acid in methanol; flow rate: 2.0 ml/min; 0-2 min: 0-4% B, 2-4 min: 4-10% B; 4-6 min: 10-20% B; 6-9 min: 20% B; 9-12 min: 20-50% B; and 12-14 min: 50-0% B.

[3] = target: T2, Bovine glutamate dehydrogenase (GDH) (Bos taurus, UniProt P00366); assay: substrate activity with redox enzyme GDH (UV 340 nm and HPLC); details: for HPLC analysis of reduction by bovine GDH: 0.5 mM compound, 2 mM L-glutamate, 20 unit/ml GDH, 30 minutes, peaks confirmed by mass spectrometry
T2 construct: purchased Sigma-Aldrich (St. Louis, MO)
T2 sequence (P00366 58-558): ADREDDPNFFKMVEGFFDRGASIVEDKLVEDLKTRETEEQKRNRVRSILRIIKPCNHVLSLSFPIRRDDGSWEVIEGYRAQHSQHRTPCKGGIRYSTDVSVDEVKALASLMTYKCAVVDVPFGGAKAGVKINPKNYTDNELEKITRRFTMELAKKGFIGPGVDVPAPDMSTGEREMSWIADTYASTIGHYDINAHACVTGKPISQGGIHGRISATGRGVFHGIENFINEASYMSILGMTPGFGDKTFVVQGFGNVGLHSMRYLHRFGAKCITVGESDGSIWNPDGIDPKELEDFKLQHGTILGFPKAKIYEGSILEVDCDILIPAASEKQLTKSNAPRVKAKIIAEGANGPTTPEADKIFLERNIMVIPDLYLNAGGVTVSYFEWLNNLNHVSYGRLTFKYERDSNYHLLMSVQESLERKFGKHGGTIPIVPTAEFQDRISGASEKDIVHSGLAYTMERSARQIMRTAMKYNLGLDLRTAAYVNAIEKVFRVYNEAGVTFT
Protocol: (§1) Bovine glutamate dehydrogenase (GDH) and Leuconostoc mesenteroides glucose-6-phosphate dehydrogenase (G6PDH) were purchased from Sigma-Aldrich (St. Louis, MO) and used for determining the substrate activities of NAD^+ and S-NAD^+. To examine substrate activity with bovine GDH, 0.1 mM NAD^+ or S-NAD^+ was incubated with 1 mM L-glutamate and 0.1 unit/ml GDH in buffer containing 2 mM DTT, 50 mM Tris, pH 7.5 for 15 minutes at room temperature. To determine substrate activity with G6PDH, 0.5 mM NAD^+ or S-NAD^+ was incubated with 5 mM D-glucose 6-phosphate and 0.01 unit/ml G6PDH in buffer containing 5 mM MgCl2, 50 mM Tris, pH 7.5 for 15 minutes at room temperature. Formation of NADH and S-NADH were monitored by UV absorbance at 340 nm under kinetic mode using a NanoDrop 2000C spectrophotometer (Thermo Scientific, MA).
(§2) To examine the bovine GDH-catalyzed reactions, 0.5 mM NAD^+ or S-NAD^+ was incubated with 2 mM L-glutamate and 20 unit/ml GDH in buffer containing 2 mM DTT, 50 mM Tris, pH 7.5 for 30 minutes at room temperature, followed by HPLC analysis with detection of UV absorbance at 340 nm. To evaluate the L. mesenteroides G6PDH-catalyzed reactions, 0.5 mM NAD^+ or S-NAD^+ was incubated with 5 mM D-glucose 6-phosphate and 10 unit/ml G6PDH in buffer containing 5 mM MgCl2, 50 mM Tris, pH 7.5 for 30 minutes at room temperature, followed by HPLC analysis with detection of UV absorbance at 340 nm. The HPLC method used for analysis of reactions by GDH and G6PDH was the same as described above.

[4] = target: T3, Leuconostoc mesenteroides glucose-6-phosphate dehydrogenase (G6PDH) (Leuconostoc mesenteroides, UniProt P11411); assay: substrate activity with redox enzyme G6PDH (UV 340 nm and HPLC); details: 0.5 mM compound, 5 mM D-glucose 6-phosphate; for HPLC analysis of reduction by L. mesenteroides G6PDH: 10 unit/ml G6PDH, 30 minutes, peaks confirmed by mass spectrometry
T3 construct: purchased Sigma-Aldrich (St. Louis, MO)
T3 sequence (P11411 whole entry): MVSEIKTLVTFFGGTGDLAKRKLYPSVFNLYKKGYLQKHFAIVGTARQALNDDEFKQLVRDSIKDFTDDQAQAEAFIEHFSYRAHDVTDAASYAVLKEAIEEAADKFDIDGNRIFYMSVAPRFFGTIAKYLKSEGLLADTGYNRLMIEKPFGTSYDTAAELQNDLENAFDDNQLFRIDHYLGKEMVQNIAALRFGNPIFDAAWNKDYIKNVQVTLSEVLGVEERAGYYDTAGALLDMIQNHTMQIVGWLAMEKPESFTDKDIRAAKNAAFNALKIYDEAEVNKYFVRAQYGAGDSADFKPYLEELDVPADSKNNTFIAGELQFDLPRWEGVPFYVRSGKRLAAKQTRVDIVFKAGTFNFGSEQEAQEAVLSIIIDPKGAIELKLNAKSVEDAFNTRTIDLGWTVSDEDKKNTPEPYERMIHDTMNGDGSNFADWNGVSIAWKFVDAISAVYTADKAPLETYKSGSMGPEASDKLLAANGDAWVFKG
Protocol: as §1, §2

human NMNAT = target: T4, human NMNAT (Homo sapiens, UniProt Q9HAN9); assay: enzymatic conversion by purified NRK1 and NMNAT1 with ATP, HPLC: NMNAT step; details: 6 mM ATP, 5 μM NRK1 and 5 μM NMNAT1, RT; relative to NMN
T4 construct: made in house; host or cells: E. coli BL21 (DE3), pET-28a(+)
T4 sequence (Q9HAN9 with tags, fused parts or gaps): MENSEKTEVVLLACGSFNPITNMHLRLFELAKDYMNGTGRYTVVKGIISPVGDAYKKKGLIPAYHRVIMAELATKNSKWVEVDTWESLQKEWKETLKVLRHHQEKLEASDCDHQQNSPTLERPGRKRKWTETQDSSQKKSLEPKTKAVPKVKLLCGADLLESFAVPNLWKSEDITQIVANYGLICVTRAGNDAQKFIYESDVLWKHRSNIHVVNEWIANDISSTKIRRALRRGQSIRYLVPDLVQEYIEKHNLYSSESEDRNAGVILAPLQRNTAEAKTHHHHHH
Protocol: (§3) FIGS. 4A-4D: HPLC analysis of enzymatic synthesis of S-NAD^+ by the purified NRK1 and NMNAT1 as measured by UV absorbance at 260 nm. 2 mM S—NR was incubated with 6 mM ATP and 5 μM NRK1 and 5 μM NMNAT1 at RT for 0 h (FIG. 4A), 0.5 h (FIG. 4B), 1 h (FIG. 4C), and 4 h (FIG. 4D), followed by HPLC analysis.
(§4) Purified S—NR (0.5 mg in the form of bromide salt) was incubated with 6 mM ATP, 5 uM of purified NRK1 and NMNAT1 at the final concentration of 2 mM at room temperature for overnight in the reaction buffer (50 mM Tris, 100 mM NaCl, 12 mM MgCl2, 1 mM DTT, and pH 7.5). After centrifugation at 4,000 g for 5 minutes, supernatants were analyzed by HPLC and the fraction containing S-NAD^+ (0.68 mg, 70%) were pooled and confirmed by both NMR and mass spectrometry. All analysis and purifications on HPLC were performed with a semipreparative C18 Kinetex column (5 μm, 100 Å, 150×10.0 mm, from Phenomenex Inc, Torrance, CA) using the following method, mobile phase A: 0.1% formic acid (aq); mobile phase B: 0.1% formic acid in methanol; flow rate: 2.0 ml/min; 0-2 min: 0-4% B, 2-4 min: 4-10% B; 4-6 min: 10-20% B; 6-9 min: 20% B; 9-12 min: 20-50% B; and 12-14 min: 50-0% B.
(§5) Human NRK1 and NMNAT1 were then expressed and purified from Escherichia coli (FIG. 1). In vitro biosynthesis of NAD^+ and S-NAD^+ from NR and S—NR, respectively, were carried out using purified NRK1 and NMNAT1. […]

human NRK = assay: enzymatic conversion by purified NRK1 and NMNAT1 with ATP, HPLC: NRK step; details: 2 mM S-NR, 6 mM ATP, 5 μM NRK1 and 5 μM NMNAT1, RT; relative to NR
Protocol: as §3, §4, §5

Structure (SMILES)	fate of compound after overnight reaction with CD38 (HPLC) (human CD38 [2])	HPLC analysis of reduction by bovine GDH [3]	HPLC analysis of reduction by L. mesenteroides G6PDH [4]	also measured
NC(=O)c1ccc[n+]([C@@H]2S[C@H](COP(=O)(O)OP(=O)([O-])OC[C@H]3O[C@@H](n4cnc5c(N)ncnc54)[C@H](O)[C@@H]3O)[C@@H](O)[C@H]2O)c1 (stereo in doubt) [S-NAD^+, 4′-thioribose NAD+]	still remained unchanged	enzyme-dependent formation of NADH and S-NADH peaks	enzyme-dependent formation of NADH and S-NADH peaks	slow-onset inhibition of CD38 (human CD38 [1]; direct competition assays with extended incubation or preincubating CD38 with S-NAD+): no slow-onset inhibition was observed; reduction by bovine GDH monitored by UV absorbance at 340 nm ([3]; 0.1 mM compound, 1 mM L-glutamate, 0.1 unit/ml GDH, 15 minutes, room temperature): characteristic increases of UV absorbance at 340 nm; reduction by L. mesenteroides G6PDH monitored by UV absorbance at 340 nm ([4]; 0.01 unit/ml G6PDH, 15 minutes, room temperature): characteristic increases of UV absorbance at 340 nm
NC(=O)c1ccc[n+]([C@@H]2O[C@H](COP(=O)([O-])OP(=O)(O)OC[C@H]3O[C@@H](n4cnc5c(N)ncnc54)[C@H](O)[C@@H]3O)[C@@H](O)[C@H]2O)c1 [NAD^+, Nicotinamide adenine dinucleotide, reference compound]	completely consumed	enzyme-dependent formation of NADH and S-NADH peaks	enzyme-dependent formation of NADH and S-NADH peaks	
NC(=O)c1ccc[n+]([C@@H]2O[C@H](COP(=O)([O-])OP(=O)(O)OC[C@H]3O[C@@H](n4cnc5c(=O)[nH]c(N)nc54)[C@H](O)[C@@H]3O)[C@@H](O)[C@H]2O)c1 [NGD^+, nicotinamide guanine dinucleotide, reference compound]				Km (human CD38 [1]; 8.3 nM recombinant CD38, 20 mM MES pH 6.5, fluorescence at 410 nm): 8.5 ± 0.6 µM
NC(=O)c1ccc[n+](C2SC(COP(=O)([O-])O)C(O)C2O)c1 (stereo not drawn) [S-NMN, 4′-thioribose nicotinamide mononucleotide]				effect of sulfur substitution on substrate activity for human NMNAT (human NMNAT): no effect
NC(=O)c1ccc[n+]([C@@H]2S[C@H](CO)[C@@H](O)[C@H]2O)c1.[Br-] [S—NR, 3-carbamoyl-1-((2R,3R,4S,5R)-3,4-dihydroxy-5-(hydroxymethyl)tetrahydrothiophen-2-yl)pyridin-1-ium]				effect of sulfur substitution on substrate activity for human NRK (human NRK): no effect
